The values that follow come from article PMC6720825, “Thiol-ene "Click" Synthesis and Pharmacological Evaluation of C-Glycoside sp^2-Iminosugar Glycolipids” (Molecules, 2019).

For experiment [1], the target named is T1, α-Glcase (Yeast Maltase) (Saccharomyces cerevisiae, UniProt P53341).
T1 construct: purchased
The experiment in a line: Glycosidase inhibition (Ki), yeast maltase α-glucosidase. Format: biochemical. Particulars: mean ± SD, three independent determinations, competitive inhibition; for Ki: read-out: Ki, α-Glcase (Yeast Maltase). An excerpt:
The inhibitory properties of the new sp^2-IGLs 1–12 and the α-C-allyl ONJ and OGJ glycosides 15, and 24 were examined against a panel of commercial glycosidases that included the α-glucosidases maltase (Saccharomyces cerevisiae) and amyloglucosidase (Aspergillus niger), the β-glucosidases from almonds and bovine liver, α-galactosidase from green coffee beans, β-galactosidase from Escherichia coli, α-mannosidase from Jack beans, and β-mannosidase from Helix pomatia. The corresponding inhibition constant (Ki) values are collected in Table 1.
Inhibition constant (Ki) values were determined by spectrophotometrically measuring the residual hydrolytic activities of the glycosidases against the respective o- (for β-galactosidase from E. coli) or p-nitrophenyl α- or β-D-glycopyranoside (for other glycosidases) in the presence of the iminosugars. Each assay was performed in phosphate buffer or phosphate-citrate buffer (for α- or β-mannosidase and amyloglucosidase) at the optimal pH for the enzymes. The reactions were initiated by addition of the enzyme to a solution of the substrate in the absence or presence of various inhibitor concentrations. The mixture was incubated for 10–30 min at 37 °C or 55 °C (for amyloglucosidase) and the reaction was quenched by addition of 1 M Na2CO3. Reaction times were appropriate to obtain 10–20% conversion of the substrate in order to achieve linear rates. The absorbance of the resulting mixture was determined at 405 nm. Approximate value of Ki was determined from the slope of Dixon plots using a fixed concentration of substrate (around the Km value for the different glycosidases) and various concentrations of inhibitor. Full Ki determinations and enzyme inhibition mode were determined from the slope of Lineweaver–Burk plots and double reciprocal analysis. Representative examples of Dixon and Lineweaver–Burk plots are shown in the Supplementary materials.

Experiment [2] deals with human solid tumor cell lines A549, SW1573 (lung), HBL-100, T-47D (breast), HeLa (cervix), WiDr (colon). The experiment in a line: Antiproliferative activity (SRB assay) against a panel of six human solid tumor cell lines. Format: cell-based. Particulars: for GI50: read-out: GI50 (concentration to achieve 50% growth inhibition), 48 h, tested 1 to 100 μM, only values below 100 μM significant. On the procedure:
The antiproliferative activity of all the sp^2-iminosugar C-glycosides (1–12) was evaluated against a panel of six representative human solid tumor cell lines including lung (A549 and SW1573), breast (HBL-100, T-47D), cervix (HeLa), and colon (WiDr).
All reagents were used as purchased from commercial suppliers without further purification. The human solid tumor cell lines A549 (lung), HBL-100 (breast), HeLa (cervix), SW1573 (lung), T-47D (breast), and WiDr (colon) were used in this study. These cell lines were a kind gift from Prof. G. J. Peters (VU Medical Center, Amsterdam, The Netherlands).
Cells were inoculated onto 96-well microtiter plates in a volume of 100 μL per well at densities of 2500 (A549, HBL-100, HeLa, and SW1573) and 5000 (T-47D and WiDr) cells per well, based on their doubling times. Compounds were initially dissolved in DMSO at 400 times the desired final maximum test concentration. Control cells were exposed to an equivalent concentration of DMSO (0.25% v/v, negative control). Each agent was tested in triplicate at different dilutions in the range of 1 to 100 μM. The drug treatment started on day 1 after plating. Drug incubation times were 48 h, after which cells were precipitated with 25 μL ice-cold TCA (50% w/v) and fixed for 60 min at 4 °C. Then the SRB assay was performed. The optical density (OD) of each well was measured at 530 nm, using BioTek’s PowerWave XS Absorbance Microplate Reader. Values were corrected for background OD from wells only containing medium. The antiproliferative activity for each compound, expressed as GI50 values, was calculated according to NCI formulas.

The test system of experiment [3] is human lung fibroblast MRC-5 cells. The experiment in a line: Cellular toxicity (MTT assay) in MRC-5 cells. The following applies: for EC50: Homo sapiens, MRC5, MTT assay, 72 h at 37 °C; for SI (EC50 MRC-5/EC50 parasite): Selectivity Index. The format is cell-based. In general terms: Tetrazolium assays rely on reduction of a dye to a coloured formazan, in cell work by metabolically active cells.

Experiment [4] has as its system intracellular amastigotes of Leishmania donovani MHOM/ET/67/HU3 line. The experiment can be described thus: Susceptibility of intracellular Leishmania amastigotes (luciferase assay). The format is cell-based. Particulars: L. donovani in THP-1 macrophages, 72 h at 37 °C, threshold 20 μM. On the procedure:
The leishmanicidal activity of all the synthesized sp^2-iminosugar C-glycosides (1–12) was evaluated against intracellular amastigotes of Leishmania donovani MHOM/ET/67/HU3 line with luciferase gene integrated into the parasite genome. […] A strong influence of the nature of the lipid chain α-linked to the pseudoanomeric position of the bicyclic core in the sp^2-IGLs was inferred from the corresponding data. […] The longer-chain sp^2-IGLs 2 and 8 were over the 20 μM concentration threshold in this assay. In the sulfone series, the results evidenced some disparity between the ONJ and OGJ epimers.
Macrophage-differentiated THP-1 cells, which are considered a suitable model for human macrophages, were plated at a density of 3 × 10^4 or 3 × 10^5 macrophages/well in 96-well white polystyrene microplates or 24-well tissue culture chamber slides, respectively, and were infected at a macrophage/parasite ratio of 1:10 with L. donovani promastigotes. Twenty-four hours after infection at 35 °C and 5% CO2, extracellular parasites were removed by washing with serum-free medium. Infected cell cultures were then incubated at different compound concentrations in RPMI 1640 medium plus 10% iFBS at 37 °C with 5% CO2 for 72 h. To determine the susceptibility of L. donovani LUC amastigotes, infected macrophages maintained in 96-well plates were lysed and then luminescence intensity was measured as indicative of the intracellular parasite growth, using the Luciferase Assay System Kit (Promega, Madison, Wis.) according to the instructions of the supplier. To determine the susceptibility of L. donovani HU3 amastigotes, infected macrophages maintained in 24-well plates were fixed for 30 min at 4 °C with 2.5% paraformaldehyde phosphate-buffered saline (PBS; 1.2 mM KH2PO4, 8.1 mM Na2HPO4, 130 mM NaCl, and 2.6 mM KCl adjusted to pH 7) and permeabilized with 0.1% Triton X-100 in PBS for 30 min. Intracellular parasites and macrophages were detected by nuclear staining with ProLong® Gold antifade reagent plus DAPI (Invitrogen). The percentage infection and mean number of amastigotes from infected macrophages were determined with 200 macrophages/well.

Experiment [5] concerns THP-1 cells. The experiment in a line: Cellular toxicity (MTT assay) in THP-1 cells. Format: cell-based, human. The following applies: for EC50: Homo sapiens, THP-1, MTT assay, 72 h at 37 °C; for SI (EC50 THP-1/EC50 parasite): Selectivity Index. On the procedure:
Human myelomonocytic cell line THP-1 was grown at 37 °C and 5% CO2 in RPMI-1640 supplemented with 10% iFBS, 2 mM […], 100 U/mL penicillin, and 100 μg/mL streptomycin; 3 × 10^4 cells/well in 96-well plates were differentiated to macrophages with 20 ng/mL of PMA treatment for 48 h followed by 24 h of culture in fresh medium. Cellular toxicity of all compounds was determined using the colorimetric MTT-based assay after incubation at 37 °C for 72 h in the presence of increasing concentrations of compounds [71].

T1 sequence (P53341 whole entry): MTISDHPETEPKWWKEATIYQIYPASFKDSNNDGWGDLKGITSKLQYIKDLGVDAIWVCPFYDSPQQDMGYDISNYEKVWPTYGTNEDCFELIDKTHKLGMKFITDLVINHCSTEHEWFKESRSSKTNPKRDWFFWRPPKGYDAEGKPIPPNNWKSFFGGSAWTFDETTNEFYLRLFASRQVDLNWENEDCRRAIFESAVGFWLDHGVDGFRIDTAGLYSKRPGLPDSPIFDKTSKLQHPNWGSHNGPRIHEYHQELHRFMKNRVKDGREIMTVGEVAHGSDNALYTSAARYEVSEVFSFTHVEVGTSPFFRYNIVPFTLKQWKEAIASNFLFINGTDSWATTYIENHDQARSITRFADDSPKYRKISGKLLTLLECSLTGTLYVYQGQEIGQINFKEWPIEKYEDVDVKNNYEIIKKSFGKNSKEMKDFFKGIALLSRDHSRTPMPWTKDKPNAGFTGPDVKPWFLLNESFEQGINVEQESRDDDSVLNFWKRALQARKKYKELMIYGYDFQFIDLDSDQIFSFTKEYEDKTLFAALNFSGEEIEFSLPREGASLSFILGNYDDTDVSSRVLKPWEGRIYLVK

Turning to `CCCCCCCCS(=O)(=O)CCC[C@@H]1[C@H](O)[C@@H](O)[C@H](O)[C@H]2COC(=O)N12` [Compound 4, (1R)-1-[3-(Octylsulfonyl)propyl]-5N,6O-oxomethylidene-1-deoxynojirimycin], the Ki in experiment [1] came to 2.6 ± 0.3 µM. In addition, in experiment [2], the GI50 was over 100 µM. Besides, the half-maximal effective concentration (EC50) is 189 ± 15.6 µM in experiment [3], over 20 µM in experiment [4] and over 200 µM in experiment [5]. Besides, the “SI (EC50 MRC-5/EC50 parasite)” value in experiment [3] is given as under 9.45.

Turning to `CCCCCCCCCCCCS(=O)(=O)CCC[C@@H]1[C@H](O)[C@@H](O)[C@@H](O)[C@H]2COC(=O)N12` [Compound 11, (1R)-1-[3-(Dodecylsulfonyl)propyl]-5N,6O-oxomethylidene-1-deoxygalactonojirimycin], in experiment [1], the “Ki, α-Glcase (Yeast Maltase)” value is listed as “n.i”. For the same compound, in experiment [2], the GI50 lay within 26 to 82 µM. In addition, the EC50 in experiment [3] is 162 ± 20.2 µM; in experiment [4], over 20 µM; in experiment [5], over 200 µM. For the same compound, the “SI (EC50 MRC-5/EC50 parasite)” value in experiment [3] is given as under 8.10.

Turning to `CC(C)(C)OC(=O)NCCS(=O)(=O)CCC[C@@H]1[C@H](O)[C@@H](O)[C@@H](O)[C@H]2COC(=O)N12` [Compound 12, (1R)-1-[3-(N-tert-Butoxycarbonylaminoethylsulfonyl)propyl]-5N,6O-oxomethylidene-1-deoxygalactonojirimycin], the “Ki, α-Glcase (Yeast Maltase)” value in experiment [1] is recorded as “n.i”. For the same compound, the “GI50 (concentration to achieve 50% growth inhibition)” value in experiment [2] (48 h, tested 1 to 100 μM, only values below 100 μM significant) is given as “did not show any significant antiproliferative activity”. Further, in experiment [2], the GI50 was over 100 µM. Moreover, the EC50 in experiment [3] was 182 ± 14.9 µM; in experiment [4] it was over 20 µM; in experiment [5], over 200 µM. Also, in experiment [3], the “SI (EC50 MRC-5/EC50 parasite)” value is listed as under 9.08.

With `CCCCCCCCCCCCS(=O)(=O)CCC[C@@H]1[C@H](O)[C@@H](O)[C@H](O)[C@H]2COC(=O)N12` [Compound 5, (1R)-1-[3-(Dodecylsulfonyl)propyl]-5N,6O-oxomethylidene-1-deoxynojirimycin], the inhibition constant (Ki) in experiment [1] amounted to 2.5 ± 0.2 µM. Further, the GI50 in experiment [2] lay in the range of 26 to 82 µM. Besides, in experiment [3], the EC50 was 71.5 ± 3.75 µM and the “SI (EC50 MRC-5/EC50 parasite)” value worked out at 6.25. In experiment [4], this compound yielded a concentration for a half-maximal effect (EC50) of 11.4 ± 5.08 µM. In experiment [5], the half-maximal effective concentration (EC50) stood at 100 ± 10.9 µM and the “SI (EC50 THP-1/EC50 parasite)” value was 8.78.

Regarding `CCCCCCCCCCCCSCCC[C@@H]1[C@H](O)[C@@H](O)[C@H](O)[C@H]2COC(=O)N12` [Compound 2, (1R)-1-[3-(Dodecylthio)propyl]-5N,6O-oxomethylidene-1-deoxynojirimycin], in experiment [1], the “Ki, α-Glcase (Yeast Maltase)” value was “nanomolar competitive inhibitor” and the inhibition constant (Ki) worked out at 0.74 ± 0.03 µM. Also, the GI50 in experiment [2] fell in the range of 9.6 to 19 µM. In experiment [3], a half-maximal response (EC50) required 19.9 ± 2.76 µM and the “SI (EC50 MRC-5/EC50 parasite)” value is listed as under 1. In addition, the concentration giving a half-maximal response (EC50) in experiment [4] is over 20 µM. Also, in experiment [5], it took 72.2 ± 4.18 µM to reach a half-maximal effect (EC50) and the “SI (EC50 THP-1/EC50 parasite)” value is recorded as under 3.61.

Turning to `CCCCCCCCSCCC[C@@H]1[C@H](O)[C@@H](O)[C@H](O)[C@H]2COC(=O)N12` [Compound 1, (1R)-1-[3-(Octylthio)propyl)-5N,6O-oxomethylidene-1-deoxynojirimycin], the inhibition constant (Ki) in experiment [1] came to 0.34 ± 0.02 µM. The GI50 in experiment [2] fell in the range of 14 to 54 µM. Besides, the EC50 in experiment [3] is 32.2 ± 1.03 µM; in experiment [4], 7.68 ± 0.29 µM; in experiment [5], 131 ± 4.29 µM. Moreover, the “SI (EC50 MRC-5/EC50 parasite)” value in experiment [3] is on record as 4.19. In addition, in experiment [5], the “SI (EC50 THP-1/EC50 parasite)” value came to 17.06.

In the case of `CCCCCCCCS(=O)(=O)CCC[C@@H]1[C@H](O)[C@@H](O)[C@@H](O)[C@H]2COC(=O)N12` [Compound 10, (1R)-1-[3-(Octylsulfonyl)propyl]-5N,6O-oxomethylidene-1-deoxygalactonojirimycin], the “Ki, α-Glcase (Yeast Maltase)” value in experiment [1] is listed as “n.i”. For the same compound, the GI50 in experiment [2] was over 100 µM. The results for the EC50 in experiment [3], in experiment [4] and in experiment [5] were 185 ± 21.2 µM, 13.8 ± 1.72 µM and over 200 µM, respectively. Besides, the “SI (EC50 MRC-5/EC50 parasite)” value in experiment [3] came to 13.40.

With `CCCCCCCCCCCCSCCC[C@@H]1[C@H](O)[C@@H](O)[C@@H](O)[C@H]2COC(=O)N12` [Compound 8, (1R)-1-[3-(Dodecylthio)propyl]-5N,6O-oxomethylidene-1-deoxygalactonojirimycin], the “Ki, α-Glcase (Yeast Maltase)” value in experiment [1] was “did not inhibit and n.i”. Also, the GI50 in experiment [2] was in the range of 9.6 to 19 µM. For the same compound, in experiment [3], it took 32.1 ± 1.94 µM to reach a half-maximal effect (EC50) and the “SI (EC50 MRC-5/EC50 parasite)” value is listed as under 1.60. This compound showed a concentration giving a half-maximal response (EC50) in experiment [4] of over 20 µM. Further, in experiment [5], a half-maximal effect (EC50) was put at 68.3 ± 3.04 µM and the “SI (EC50 THP-1/EC50 parasite)” value is on record as under 3.42.

Consider `C[C@@H]1[C@H](O)[C@@H](C)/C=C/C=C/C=C/C=C/C=C/C=C/C=C/[C@H](O[C@@H]2O[C@H](C)[C@@H](O)[C@H](N)[C@@H]2O)C[C@@H]2O[C@](O)(C[C@@H](O)C[C@@H](O)[C@H](O)CC[C@@H](O)C[C@@H](O)CC(=O)O[C@H]1C)C[C@H](O)[C@H]2C(=O)O` [AmB, amphotericin B, reference compound], for which the EC50 stood at 16.9 ± 2.44 µM in experiment [3], 0.15 ± 0.01 µM in experiment [4] and 20.1 ± 4.43 µM in experiment [5]. Besides, the “SI (EC50 MRC-5/EC50 parasite)” value in experiment [3] is on record as 112.87. Also, the “SI (EC50 THP-1/EC50 parasite)” value in experiment [5] turned out to be 133.80.

As usually defined, the Ki is the dissociation constant of the complex between target and ligand, obtained from inhibition or displacement. As a reminder, the EC50 is the concentration at which the effect is half-maximal. The low end stands for greater potency, the high end for weaker potency.
